What was measured:
Assay type in all cases: cell-based, human
[1] = system: melanoma cells; experiment: Migration, invasion, clonogenicity with excess GH; conditions: up to 150 ng/ml GH
Procedure: Cell migration assays are standard methods of estimating the repair and regenerative properties of cells. In this example, the Radius Cell Migration Assay design from Cell Biolabs (Cell Biolabs #CBA-125, San Diego, Calif.) was used, and experiments were performed as per the manufacturer's protocol. In this assay, a 24-well plate containing a non-toxic, 0.68 mm biocompatible hydrogel spot is present at the center of the well, which spot prevents the attachment of cells. siRNA treated cells were trypsinized 48 hours post-transfection, counted, and seeded at 5000 cells/well in a pretreated hydrogel spot-containing 24-well plate. […] Images were captured every 24 hours using a 4× objective (total magnification 40×) employing an inverted Olympus IX70 microscope fitted with a Retiga 1300 camera (QImaging, Surrey, BC). Total uncovered area at the beginning and end of assay were quantitated using ImageJ software, Experiments were performed in triplicates.
The 96-well 3D spheroid BME cell invasion assay (Trevigen, Gaithersburg, Md.) was used to evaluate the ability of cells to invade surrounding tissue. […] The invasive behavior of the cells was monitored every 24 hours for up to 72 hours. […] Total pixels at the beginning and end of assay were quantitated using ImageJ software. […]
Colony formation on soft agar assay was next examined using a high-throughput fluorescent readout. […]

[2] = system: MALME-3M cells; experiment: RT-qPCR of RNA levels after hGH addition or GHR-KD; conditions: 0, 5, 50 and 150 ng/mL hGH, 24 hr
Procedure: (§1) For hGH treatment, 16 hours after seeding (or 24 hours post-transfection), the cells were serum-starved for 2 hours in serum-free growth media, and hGH (phosphate buffered saline was used as control where applicable) was added at the noted concentrations (0-, 5-, 50-, and 150 ng/ml). Cells were subsequently incubated for 24 hours before evaluating RNA levels. Recombinant hGH was purchased from Antibodies Online (#ABIN2017921, Atlanta, Ga.).
(§2) Transfection was performed using siLentFect lipid reagent (Biorad #170-3360, Hercules, Calif.) following the manufacturer's protocol. […] Mock transfections were performed using universal scrambled negative control siRNA-duplex (Origene #SR30004). TYE-563-fluorescent labeled siRNA duplex (Origene #SR30002) was used as the transfection control. Cells were trypsinized, counted using a Countess Automated Cell Counter (Life Technologies, Carlsbad, Calif.), and seeded at 25,000-30,000 cells/cm^2, the cells being allowed to attach for 16-18 hours. The growth media was replaced with fresh antibiotic free complete growth medium just prior to transfection. […] Media was changed to complete growth medium plus antibiotics after 24 hours. RNA levels were analyzed 48 hours post-transfection, and protein levels were analyzed at 60 hours post-transfection.
(§3) RNA extraction was performed using the IBI-Trizol based total RNA purification kit (MidSci #IB47632, St. Louis, Mo.), and reverse transcription was performed using Maxima First Strand cDNA synthesis kit (Thermo Fisher Scientific #K1642, Waltham, Mass.) following the manufacturers' protocols. Real time-quantitative PCR and melt curve analysis were performed using Maxima SYBR-Green qPCR master mix (Thermo Fisher Scientific #K0241) and a T100 thermal cycler (Biorad #1861096, Hercules, Calif.). RNA and DNA concentrations were estimated using a Nanodrop2000 (Thermo Fisher Scientific, Waltham, Mass.) spectrophotometer. Primers were obtained from Sigma-Aldrich for the following human genes, with primer efficiency being experimentally confirmed: GAPDH, b-Actin, GHR, GHRHR, SOCS2, IGF1, IGF1R, IGF2, IGF2R, PRL, PRLR, insulin (Ins), IR, IGFBP2, IGFBP3, EGFR, HGF, cMET and ERBB3. Each sample represented a pool of two replicates per experiment. Experiments were performed at least three times. Each qPCR for individual genes and every treatment for every cell type was performed in triplicates.
(§4) And so—referring now to FIGS. 12A-12B, 17A-17C, 18A-18F, 19A-19F, and 20A-20F—RT-qPCR analysis of GH-IGF axis in human melanoma cells (FIGS. 12A-12B) and RT-qPCR analysis of GH-GHR and PRL-PRLR pairs in human melanoma cells (FIGS. 17A-17C) was performed. […] And, while not shown in FIGS. 12A and 12B, similar results for MALME-3M, MDA-MB-435 and SK-MEL-5 human melanoma cells are presented in FIGS. 13A-13L, 17A-17C, 18A-18F, 19A-19F, and 20A-20F. […] In all cases, exogenous hGH treatment was for 24 hr. RNA levels were normalized against expression of beta-actin and GAPDH as reference genes. […] Cells were grown in presence of 50 ng/mL exogenous GH and protein level changes were estimated 60 hr. post-transfection. [*, p<0.05, Students t test, n=3]. […] The percentage free area at the end time point was calculated using ImageJ software and reflected the decrease/inhibition in migration. […] [*, p<0.05, Students t-test, n=3]. In all cases, exogenous hGH treatment was for 24 hr. RNA levels were normalized against expression of β-actin and GAPDH as reference genes [*, p<0.05, Wilcoxon sign rank test, n=4]. […] In all cases, exogenous hGH treatment was for 24 hr. RNA levels were normalized against expression of β-actin and GAPDH as reference genes. [*, p<0.05, Wilcoxon sign rank test, n=4]

[3] = system: MDA-MB-435 cells; experiment: RT-qPCR of RNA levels after hGH addition or GHR-KD
Procedure: as §1, §2, §3, §4

Substance: hGH: Recombinant human growth hormone, Antibodies Online #ABIN2017921
- melanoma migration, invasion, or clonogenicity upon incubation with excess GH [1]: No marked increase
- RNA levels of TYRP1 with GH [2]: dose-dependent increase
- E-cadherin RNA levels with increasing GH [3]: decreased significantly
